Experimental data taken from US20120035219A1, “Compound for the Treatment of Tuberculosis” (ASTRAZENECA AB, priority 2009, published 2012).
Converted amounts (≈) assume the structure as drawn.

How the values were obtained:
[1] = tested on: mycobacteria; settings: cited from earlier work
[2] = Pharmacokinetic parameters in mouse; type: in vivo, BALB/c mice
Method: BALB/c mice (8-10 week old) were dosed with the compound in an appropriate vehicle at specified doses as a single dose at a dose volume of 10 mL/Kg. The dose was administered either orally or parentally. Blood samples were collected at various time points ranging from 0.08 h to 50 h post dosing and plasma harvested by acceptable methods like precipitation or extraction. The concentration of the compound in plasma was determined by standard analytical instruments like HPLC and/or LC-MS.
(§1) PK analyses of the plasma concentration-time relationships were performed with WinNonLin software (or any other suitable software program). A noncompartmental analysis program was used to calculate the PK parameters, such as the maximum concentration of drug in plasma (Cmax), time to Cmax(tmax), elimination rate constant, elimination half-life, and AUC from time zero to infinity (AUC0-inf)
(§2) The compounds were dosed to animals at various doses (not exceeding 25 mg/kg) and the concentration of the compound at various time points was estimated.

[3] = Pharmacokinetic parameters in dog; type: in vivo; settings: plasma; Dog (12.5-15 mg/kg)
Method: as §1, §2

[4] = PPB (fraction free), mouse; settings: plasma
[5] = tested on: Mtu (tubercle bacilli) lung infection; experiment: In vivo dose-response, aerosol infection model, 4 wk efficacy; settings: BALB/c mice, oral once daily, 6 days a week for 4 weeks
[6] = tested on: Mtu in bone marrow derived macrophages from BALB/c mice; experiment: Bone marrow derived macrophages (BMDM) intracellular infection model; type: cell-based, Mycobacterium tuberculosis; settings: for BMDM (log Redn @ 8 μg/mL): 10 days drug exposure, CFU
[7] = Pharmacokinetic parameters in rat; type: in vivo; settings: plasma; Rat (20-25 mg/kg)
Method: as §1, §2

[8] = tested on: Mtu H37Rv (ATCC 27294); experiment: MIC testing, Microplate Alamar Blue Assay; type: cell-based; settings: Mycobacterium tuberculosis
[9] = tested on: Mtu H37Rv (ATCC 27294); experiment: Minimum bactericidal concentration (MBC), plating on 7H10 agar; type: cell-based; settings: Mycobacterium tuberculosis; concentration giving less than 50 colonies
[10] = in vitro; settings: mouse
[11] = tested on: slow growing mycobacteria; settings: cited from earlier work
[12] = tested on: M. tuberculosis; settings: given orally or parenterally to experimental animals; cited from earlier work
[13] = cited from earlier work
[14] = compared with Linezolid; cited from earlier work
[15] = cited from earlier work; remark: listed apart in the source
[16] = cited from earlier work; remark: listed apart in the source
[17] = BALB/c, plasma, Mouse (10 mg/kg)
[18] = mouse, at the minimum effective dose

**Q.** With `CC(=O)NC[C@H]1CN(c2ccc(N3CCSCC3)c(F)c2)C(=O)O1` [PNU-100480] as the molecule, how does the “antimycobacterial activities in the murine model” value [1] read?
**A.** promising antimycobacterial activities

**Q.** What does the source list for `CC(=O)NC[C@H]1CN(c2ccc(N3CCOCC3)c(F)c2)C(=O)O1` [Linezolid, N—[(S)-3-(3-Fluoro-4-morpholin-4-yl-phenyl)-2-oxo-oxazolidin-5-ylmethyl]-acetamide]?
**A.** AUC ([2]; BALB/c, plasma, oral, mouse, at the minimum effective dose, read-out: AUC): 279 µg·h/mL; half-life [2, 17]: 1 h; AUC ([2]; BALB/c, plasma, Mouse (10 mg/kg), read-out: AUC): 7.3 µg·h/mL; fAUC/MIC [2, 18]: 390.24; fAUC ([2]; mouse, at the minimum effective dose, AUC x fraction free): 195.12; AUC [3]: 42 µg·h/mL; half-life [3]: 4 h; fraction unbound [4]: 0.7; Minimum Effective Dose in a 4 wk efficacy model [5]: 250 mg/kg; BMDM (log Redn @ 8 μg/mL) [6]: −0.05 log; AUC [7]: 41.6 µg·h/mL; half-life [7]: 1.3 to 3 h; antimycobacterial activities in the murine model [1]: promising antimycobacterial activities; MIC [8]: 0.5 mg/L (≈ 1.48 µM); MBC [9]: 4 mg/L (≈ 11.9 µM)

**Q.** What does the source list for `O=C([C@@H](O)CO)N1CC=C(c2c(F)cc(N3C[C@H](COc4ccon4)OC3=O)cc2F)CC1` [AZD2563, (5R)-3-[4-[1-[(2S)-2,3-dihydroxypropanoyl]-3,6-dihydro-2H-pyridin-4-yl]-3,5-difluoro-phenyl]-5-(isoxazol-3-yloxymethyl)oxazolidin-2-one]?
**A.** AUC ([2]; BALB/c, mouse, in vivo): 150 µg·h/mL; fAUC ([2]; BALB/c, mouse, in vivo): 27.07; AUC ([2]; BALB/c, mouse, in vivo, 10 mg/kg): 20.3 µg·h/mL; half-life [2, 17]: 1.3 h; fAUC/MIC [2, 18]: 54.14; half-life [3]: 10 h; fraction unbound [10]: 0.18; Minimum Effective Dose in a 4 wk efficacy model [5]: 125 mg/kg; BMDM (log Redn @ 8 μg/mL) [6]: 1.3 log; bactericidal activity in the intracellular infection model (BMDM) as compared to Linezolid ([6]; compared to Linezolid): greater bactericidal activity; half-life [7]: 4 to 6 h; MIC [8]: 0.5 mg/L (≈ 1.07 µM); MBC [9]: 2 mg/L (≈ 4.3 µM)

**Q.** With `CC(=O)NC[C@H]1CN(c2ccc(N3CCN(Cc4ccc([N+](=O)[O-])o4)CC3)c(F)c2)C(=O)O1` [RBx 7644] as the molecule, how does the antimycobacterial activity [11] read?
**A.** modest antimycobacterial activity

**Q.** Which results are given for `CC(=O)NC[C@H]1CN(c2ccc(C(C)=O)cc2)C(=O)O1` [DuP-721]?
**A.** activity against M. tuberculosis [12]: good activity; toxicity in animal models [13]: lethal toxicity

**Q.** Which in vivo efficacy [14] does the source give for `CC(=O)NC[C@H]1CN(c2ccc(-c3ccc(-c4nnnn4C)nc3)c(F)c2)C(=O)O1` [DA-7867] here?
**A.** better in vivo efficacy than Linezolid

**Q.** What about the “tolerability in rat toxicology studies” value [15] of the same molecule?
**A.** poorly tolerated

**Q.** And the in vitro efficacy [16]?
**A.** good in vitro
